According to patent US6858638B2, “Substituted indazoles, compositions containing them, method of production and use” (Aventis Pharma S.A., priority 2002, dated 2005):
Where two headings read alike, the source gives them in different places.

Key:
Type in all cases: biochemical
[1] = target: T1, human FAK (Homo sapiens, UniProt Q05397); assay: FAK autophosphorylation inhibition, time resolved fluorescence (HTRF) assay; conditions: 10 μM (values without asterisk); read-out: FAK % inhib at 10 μM
T1 construct: The complete cDNA of human FAK; made in house; host or cells: baculovirus expression system (vector pFastBac HTc)
Summary of the method: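 Autophosphorylation was detected by europium-cryptate anti-pTyr and XL665 anti-His energy transfer, percent inhibition from the 665/620 ratio relative to no-compound wells. Enzyme: His-FAK full length, 6.6 µg/ml, incubated 1 h at 37 °C, pH 7.2, 15 µM ATP.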

[2] = target: T2, human KDR enzyme (Homo sapiens, UniProt P35968); assay: KDR substrate (PLCγ) phosphorylation, scintillation assay; conditions: read-out: KDR % inhib at 10 μM
T2 construct: The cytoplasmic domain of the human KDR enzyme; GST; made in house; host or cells: SF21 insect cells (baculovirus)
Summary of the method: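 Values are percent inhibition relative to the compound-free control, read by scintillation counting of 33P incorporation after EDTA stop. Baculovirus/SF21-expressed GST-KDR cytoplasmic domain (100 ng) acted for 1 h at 37 °C in pH 7.2 MOPS kinase buffer. The substrate was GST-PLCγ SH2-SH3 (2 μg), added with γ33P-ATP and 2 μM unlabeled ATP.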

[3] = target: T3, Aurora2 kinase (Homo sapiens, UniProt O14965); assay: Aurora2 kinase radioactivity scintillation assay using nickel chelate (NuMA substrate); conditions: read-out: Aurora2 % inhib at 10 μM
T3 construct: A complete recombinant Aurora2 enzyme; His tag (N); made in house; host or cells: E. coli
T3 sequence (O14965 1-403): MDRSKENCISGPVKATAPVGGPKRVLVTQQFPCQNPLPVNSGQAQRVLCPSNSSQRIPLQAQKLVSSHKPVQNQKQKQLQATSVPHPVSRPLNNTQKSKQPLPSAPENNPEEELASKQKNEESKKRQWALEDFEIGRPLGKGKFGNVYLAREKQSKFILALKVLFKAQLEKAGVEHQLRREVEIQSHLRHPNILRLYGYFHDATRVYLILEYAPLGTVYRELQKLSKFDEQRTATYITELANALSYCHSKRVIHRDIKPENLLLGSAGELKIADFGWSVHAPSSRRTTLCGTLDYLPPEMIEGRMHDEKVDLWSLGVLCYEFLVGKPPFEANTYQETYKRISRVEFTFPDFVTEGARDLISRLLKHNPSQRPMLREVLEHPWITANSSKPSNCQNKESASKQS
Summary of the method: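 Read-out is 33P incorporation into His-NuMA (Q1687-H2101, 0.5 μM) captured on nickel chelate, after 30 min at 37 °C with 0.02 μM His-Aurora2 and 1 μM ATP. Expressed as percentage inhibition of uncompounded control activity, background subtracted.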

[4] = target: T4, human IGF1R cytoplasmic domain (Homo sapiens, UniProt P08069); assay: IGF1R autophosphorylation inhibition, time resolved fluorescence (HTRF) assay; conditions: read-out: IGF1R % inhib at 10 μM
T4 construct: The human IGF1R cytoplasmic domain was cloned; made in house; host or cells: SF21 insect cells (baculovirus)
Procedure: The inhibitory activity of the compounds on IGF1R is determined by measuring the inhibition of the autophosphorylation of the enzyme using a time resolved fluorescence (HTRF) assay.
The human IGF1R cytoplasmic domain was cloned, as a fusion with glutathione S-transferase (GST), into the baculovirus expression vector pFastBac-GST. The protein was expressed in SF21 cells and purified to approximately 80% homogeneity.
The kinase activity was determined by incubating the enzyme with various concentrations of test compound in a 50 mM Hepes buffer, pH 7.5, containing 5 mM MnCl2, 50 mM NaCl, 3% glycerol, 0.025% Tween […] of ATP. The enzyme reaction is stopped by adding 100 mM Hepes buffer, pH 7.0, containing 0.4 M KF, 133 mM EDTA and 0.1% BSA containing an anti-GST antibody labeled with XL665 and an antiphosphotyrosine antibody conjugated to europium cryptate (Eu-K). The characteristics of the two fluorophores, XL-665 and Eu-K, are available in G. Mathis et al., Anticancer Research, 1997, 17, pages 3011-3014. The transfer of energy from the excited europium cryptate to the acceptor XL665 is proportional to the degree of autophosphorylation of IGF1R. The long-lived signal specific for XL-665 is measured in a Victor analyzer plate counter (Perkin-elmer). The inhibition of the IGF1R autophosphorylation activity with compounds of the invention is expressed as percentage inhibition compared to a control whose activity is measured in the absence of test compound.

T1 sequence (Q05397 whole entry): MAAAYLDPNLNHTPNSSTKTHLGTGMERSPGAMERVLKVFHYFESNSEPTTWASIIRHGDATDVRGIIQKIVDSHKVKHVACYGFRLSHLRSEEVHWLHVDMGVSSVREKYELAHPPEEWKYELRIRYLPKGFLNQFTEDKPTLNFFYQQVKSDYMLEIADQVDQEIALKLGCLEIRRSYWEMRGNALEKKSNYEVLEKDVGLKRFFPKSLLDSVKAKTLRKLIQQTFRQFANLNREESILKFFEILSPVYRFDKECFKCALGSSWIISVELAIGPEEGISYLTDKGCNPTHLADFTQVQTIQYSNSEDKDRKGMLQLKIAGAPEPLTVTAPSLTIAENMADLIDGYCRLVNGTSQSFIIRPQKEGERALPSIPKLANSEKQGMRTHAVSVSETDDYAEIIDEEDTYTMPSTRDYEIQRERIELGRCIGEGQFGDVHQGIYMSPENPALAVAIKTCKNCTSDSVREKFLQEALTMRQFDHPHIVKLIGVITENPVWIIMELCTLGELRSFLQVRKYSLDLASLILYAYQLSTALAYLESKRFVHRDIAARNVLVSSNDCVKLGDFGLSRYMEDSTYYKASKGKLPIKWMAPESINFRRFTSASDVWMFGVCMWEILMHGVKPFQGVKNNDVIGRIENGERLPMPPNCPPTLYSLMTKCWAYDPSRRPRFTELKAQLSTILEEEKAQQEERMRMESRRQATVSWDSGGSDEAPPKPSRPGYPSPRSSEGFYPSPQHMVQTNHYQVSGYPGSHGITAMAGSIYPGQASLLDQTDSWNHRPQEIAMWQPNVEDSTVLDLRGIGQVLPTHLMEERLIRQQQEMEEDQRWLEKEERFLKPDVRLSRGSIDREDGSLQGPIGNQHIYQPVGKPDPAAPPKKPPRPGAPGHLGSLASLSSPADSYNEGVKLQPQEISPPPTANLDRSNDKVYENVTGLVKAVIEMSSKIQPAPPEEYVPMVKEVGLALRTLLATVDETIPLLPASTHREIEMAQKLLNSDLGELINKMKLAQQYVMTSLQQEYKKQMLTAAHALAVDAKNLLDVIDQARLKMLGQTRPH
T2 sequence (P35968 786-1356 limits assumed): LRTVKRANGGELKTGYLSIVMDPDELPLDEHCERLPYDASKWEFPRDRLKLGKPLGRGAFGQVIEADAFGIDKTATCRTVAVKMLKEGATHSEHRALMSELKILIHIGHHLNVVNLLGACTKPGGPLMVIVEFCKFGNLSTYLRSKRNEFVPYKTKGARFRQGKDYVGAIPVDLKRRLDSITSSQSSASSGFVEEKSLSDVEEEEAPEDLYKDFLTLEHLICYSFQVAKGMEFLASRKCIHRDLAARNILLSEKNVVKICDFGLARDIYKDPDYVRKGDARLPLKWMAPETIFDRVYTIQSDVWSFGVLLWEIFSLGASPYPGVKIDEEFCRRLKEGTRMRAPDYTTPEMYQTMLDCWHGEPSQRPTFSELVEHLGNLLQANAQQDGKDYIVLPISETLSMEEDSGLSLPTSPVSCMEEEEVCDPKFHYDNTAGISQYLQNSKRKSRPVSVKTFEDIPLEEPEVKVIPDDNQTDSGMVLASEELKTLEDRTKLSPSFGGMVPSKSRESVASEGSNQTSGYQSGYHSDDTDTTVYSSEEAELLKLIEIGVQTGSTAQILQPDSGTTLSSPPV
T4 sequence (P08069 960-1367 limits assumed): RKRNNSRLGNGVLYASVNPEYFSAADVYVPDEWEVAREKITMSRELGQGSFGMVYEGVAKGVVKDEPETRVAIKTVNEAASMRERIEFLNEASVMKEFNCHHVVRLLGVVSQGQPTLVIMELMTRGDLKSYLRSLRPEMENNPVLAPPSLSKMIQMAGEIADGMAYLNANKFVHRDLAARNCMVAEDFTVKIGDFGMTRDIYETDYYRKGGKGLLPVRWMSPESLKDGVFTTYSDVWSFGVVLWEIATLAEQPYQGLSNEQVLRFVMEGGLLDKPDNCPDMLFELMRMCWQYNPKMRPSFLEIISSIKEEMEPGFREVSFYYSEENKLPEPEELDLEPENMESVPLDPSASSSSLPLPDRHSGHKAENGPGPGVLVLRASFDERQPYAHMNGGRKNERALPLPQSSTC

| Compound | inhibition at 10 µM [1] | inhibition at 10 µM ([2]; 10 μM) | inhibition at 10 µM ([3]; 10 μM) | inhibition at 10 µM ([4]; 10 μM) | inhibition at 10 µM [2] | inhibition at 10 µM [3] | inhibition at 10 µM [4] |
| --- | --- | --- | --- | --- | --- | --- | --- |
| CS(=O)(=O)c1ccccc1S(=O)(=O)Nc1ccc2[nH]nc(/C=C/c3ccccc3)c2c1 [Example 78, 2-Methylsulfonyl-N-[3-((E)-styryl)-1H-indazol-5-yl]benzenesulfonamide] | 94% | 97% | 100% | 96% | – | – | – |
| O=S(=O)(Nc1ccc2[nH]nc(-c3cc4ccccc4[nH]3)c2c1)c1ccccc1 [Example 82, N-[3-(1H-Indol-2-yl)-1H-indazol-5-yl]benzenesulfonamide] | 93% | 100% | 100% | 100% | – | – | – |
| CS(=O)(=O)c1ccccc1S(=O)(=O)Nc1ccc2[nH]nc(Nc3ccccc3)c2c1 [Example 83, 2-Methylsulfonyl-N-(3-phenylamino-1H-indazol-5-yl)-benzenesulfonamide] | 92% | 60% | 93% | 100% | – | – | – |
| O=S(=O)(Nc1ccc2[nH]nc(-c3cc4ccccc4[nH]3)c2c1)c1cccc(F)c1 [Example 85, 3-Fluoro-N-[3-(1H-indol-2-yl)-1H-indazol-5-yl]benzenesulfonamide] | 95% | 99% | 100% | 99% | – | – | – |
| CN(C)c1c(F)c(F)c(S(=O)(=O)Nc2ccc3[nH]nc(-c4cc5ccccc5[nH]4)c3c2)c(F)c1F [Example 86, 4-Dimethylamino-2,3,5,6-tetrafluoro-N-[3-(1H-indol-2-yl)-1H-indazol-5-yl]benzenesulfonamide] | 40% | 85% | 86% | 53% | – | – | – |
| C[Si](C)(C)C#Cc1cccc(-c2n[nH]c3ccc(NS(=O)(=O)c4ccccc4S(C)(=O)=O)cc23)c1 [Example 91, 2-Methylsulfonyl-N-[3-(3-trimethylsilanylethynylphenyl)-1H-indazol-5-yl]benzenesulfonamide] | 95% | – | – | – | 35% | 11% | 7% |
| CS(=O)(=O)c1ccccc1S(=O)(=O)Nc1ccc2[nH]nc(-c3cc(C(F)(F)F)cc(C(F)(F)F)c3)c2c1 [Example 101, N-[3-(3,5-bistrifluoromethylphenyl)-1H-indazol-5-yl]-2-methylsulfonylbenzenesulfonamide] | 84% | 39% | 30% | 28% | – | – | – |
| CS(=O)(=O)c1ccccc1S(=O)(=O)Nc1ccc2[nH]nc(-c3cc(F)cc(F)c3)c2c1 [Example 102, N-[3-(3,5-difluorophenyl)-1H-indazol-5-yl]-2-methylsulfonylbenzenesulfonamide] | 90% | 77% | 96% | 74% | – | – | – |
| CSc1ccccc1-c1n[nH]c2ccc(NS(=O)(=O)c3ccccc3S(C)(=O)=O)cc12 [Example 103, 2-methylsulfonyl-N-[3-(2-methylsulfanylphenyl)-1H-indazol-5-yl]benzenesulfonamide] | 61% | 25% | 40% | 19% | – | – | – |
| CS(=O)(=O)c1ccccc1S(=O)(=O)Nc1ccc2[nH]nc(-c3ccc4[nH]ccc4c3)c2c1 [Example 104, N-[3-(1H-indol-5-yl)-1H-indazol-5-yl]-2-methylsulfonylbenzenesulfonamide] | 85% | 75% | 97% | 73% | – | – | – |
| Cc1ccccc1-c1n[nH]c2ccc(NS(=O)(=O)c3ccccc3S(C)(=O)=O)cc12 [Example 105, 2-Methylsulfonyl-N-(3-o-tolyl-1H-indazol-5-yl)benzenesulfonamide] | 71% | 28% | 49% | 25% | – | – | – |
| O=S(=O)(Nc1ccc2[nH]nc(-c3ccccc3)c2c1)c1cccc2ccccc12 [Example 106, N-(3-Phenyl-1H-indazol-5-yl)-naphthalene-1-sulfonamide] | 43% | 79% | 92% | 90% | – | – | – |
| CN(C)c1cccc2c(S(=O)(=O)Nc3ccc4[nH]nc(-c5ccccc5)c4c3)cccc12 [Example 107, 5-Dimethylamino-N-(3-phenyl-1H-indazol-5-yl)naphthalene-1-sulfonamide] | 10% | 51% | 43% | 84% | – | – | – |

The next lines start with results.

| inhibition at 10 µM [1] | inhibition at 10 µM ([2]; 10 μM) | inhibition at 10 µM ([3]; 10 μM) | inhibition at 10 µM ([4]; 10 μM) | Compound | inhibition at 10 µM [2] | inhibition at 10 µM [3] | inhibition at 10 µM [4] |
| --- | --- | --- | --- | --- | --- | --- | --- |
| 8% | 72% | 44% | 78% | O=S(=O)(Nc1ccc2[nH]nc(-c3ccccc3)c2c1)c1ccc2ccccc2c1 [Example 108, N-(3-Phenyl-1H-indazol-5-yl)-naphthalene-2-sulfonamide] | – | – | – |
| 66% | 83% | 100% | 99% | O=S(=O)(Nc1ccc2[nH]nc(-c3ccccc3)c2c1)c1cccc2cccnc12 [Example 111, N-(3-Phenyl-1H-indazol-5-yl)quinoline-8-sulfonamide] | – | – | – |
| 48% | 90% | 98% | 50% | CC(C)c1cc(C(C)C)c(S(=O)(=O)Nc2ccc3[nH]nc(-c4ccccc4)c3c2)c(C(C)C)c1 [Example 114, 2,4,6-Triisopropyl-N-(3-phenyl-1H-indazol-5-yl)-benzenesulfonamide] | – | – | – |
| 31% | 78% | 70% | 79% | Cc1cc(C)c(S(=O)(=O)Nc2ccc3[nH]nc(-c4ccccc4)c3c2)c(C)c1 [Example 115, 2,4,6-Trimethyl-N-(3-phenyl-1H-indazol-5-yl)-benzenesulfonamide] | – | – | – |
| 25% | 78% | 50% | 50% | O=[N+]([O-])c1ccc(S(=O)(=O)Nc2ccc3[nH]nc(-c4ccccc4)c3c2)cc1 [Example 119, 4-Nitro-N-(3-phenyl-1H-indazol-5-yl)benzenesulfonamide] | – | – | – |
| 46% | 58% | 64% | 30% | CCCCS(=O)(=O)Nc1ccc2[nH]nc(-c3ccccc3)c2c1 [Example 129, N-(3-Phenyl-1H-indazol-5-yl)-butanesulfonamide] | – | – | – |
| 6% | 70% | 71% | 40% | O=C(NCc1ccc(S(=O)(=O)Nc2ccc3[nH]nc(-c4ccccc4)c3c2)s1)c1ccccc1 [Example 140, N-[5-(3-Phenyl-1H-indazol-5-ylsulfamoyl)thiophen-2-ylmethyl]benzamide] | – | – | – |
| 40% | 85% | 100% | 74% | O=S(=O)(Nc1ccc2[nH]nc(-c3ccccc3)c2c1)c1ccccc1OC(F)(F)F [Example 142, N-(3-Phenyl-1H-indazol-5-yl)-2-trifluoromethoxy-benzenesulfonamide] | – | – | – |
